Laboratory results taken from patent US20220062380A1 (priority 2018, published 2022).
Where no end group is shown, it is not given here.

How the values were obtained:
[1] = test system: plasma corticosterone; test: Plasma corticosterone levels in the Saelens precipitated withdrawal model, Protocol B (Example 3); assay type: in vivo, mouse; conditions: morphine-treated mice, naloxone-precipitated withdrawal; for plasma corticosterone levels: TCAP-1 250 nmole/kg vs. CP154,526 5, 20, 50 mg/kg
Protocol: Two hours after the 11 a.m. injections, at 1 p.m., all mice received an intraperitoneal (“i.p.”) injection of Naloxone 2.5 mg/kg), baseline blood samples were taken and then they were immediately placed individually in an observation area and video recorded 20 minutes. The number of jumps (lifting of all feet off the ground) were recorded for 20 minutes. A second set of blood samples were taken post-jumps (about 30 minutes after the naloxone administration.
The same protocol as in Protocol A was followed with the exception that on day 2, there were three Group 3 mice (10 per group) which were administered: 5 mg/kg, 20 mg/kg or 50 mg/kg of the CRH antagonist CP154,526.

[2] = test system: Swiss Webster mice; test: Saelens drug-precipitated withdrawal in the mouse, TCAP-1 pre-morphine (Example 1); assay type: in vivo
[3] = test system: Swiss Webster mice; test: Saelens precipitated withdrawal test, single dose TCAP-1 post-morphine (Example 2); assay type: in vivo, mouse; conditions: Group 4: TCAP-1 500 nmole/kg s.c. single dose post-morphine; naloxone 10 mg/kg i.p.
[4] = test system: Swiss Webster mice; test: Saelens precipitated withdrawal test, CRH antagonist vs. TCAP-1, Protocol A (Example 3); assay type: in vivo, mouse; conditions: TCAP-1 250 nmole/kg per time point vs. CRH antagonist 20 mg/kg per time point; morphine-treated mice; naloxone 2.5 mg/kg i.p.
[5] = test system: Swiss Webster mice; test: Saelens precipitated withdrawal test, CRH antagonist dose response vs. TCAP-1, Protocol B, jumps (Example 3); assay type: in vivo, mouse; conditions: TCAP-1 250 nmole/kg vs. CP154,526 5, 20, 50 mg/kg; morphine-treated mice; naloxone 2.5 mg/kg i.p.

| Compound | plasma corticosterone levels [1] | dose needed to approach TCAP-1 250 nmole/kg effect on corticosterone levels [1] | Mean # Jumps over 20 Minutes ([2]; Group 8: saline days 1-3, saline day 4-5, MK801 on day 5, no morphine, no naloxone, n = 4) | Mean # Jumps over 20 Minutes ([2]; TCAP-1 10 nmole/kg s.c. days 1-3, morphine 32 mg/kg i.p. days 4-5, naloxone 10 mg/kg i.p., n = 3) | Mean # Jumps over 20 Minutes ([2]; TCAP-1 25 nmole/kg s.c. days 1-3, morphine 32 mg/kg i.p. days 4-5, naloxone 10 mg/kg i.p., n = 9) | Mean # Jumps over 20 Minutes ([2]; TCAP-1 50 nmole/kg s.c. days 1-3, morphine 32 mg/kg i.p. days 4-5, naloxone 10 mg/kg i.p., n = 9) | Mean # Jumps over 20 Minutes ([2]; TCAP-1 100 nmole/kg s.c. days 1-3, morphine 32 mg/kg i.p. days 4-5, naloxone 10 mg/kg i.p., n = 9) | Mean # Jumps over 20 Minutes ([2]; TCAP-1 250 nmole/kg s.c. days 1-3, morphine 32 mg/kg i.p. days 4-5, naloxone 10 mg/kg i.p., n = 9) | jump rate after naloxone-precipitated morphine withdrawal ([2]; TCAP-1 10-250 nmole/kg pre-morphine vs. morphine alone) | number of jumps in 20 minutes after naloxone [3] | number of jumps/20 minutes after naloxone [4] | number of jumps/20 minutes [5] |
| --- | --- | --- | --- | --- | --- | --- | --- | --- | --- | --- | --- | --- |
| CCCCN(CC)c1nc(C)nc2c1c(C)cn2-c1c(C)cc(C)cc1C [CP154,526] | still had an effect | at least 50 mg/kg | – | – | – | – | – | – | – | – | – | – |
| C[C@]12N[C@H](Cc3ccccc31)c1ccccc12 [MK801, reference compound] | – | – | 0 | – | – | – | – | – | – | – | – | – |
| Teneurin C-Terminal Associated Peptide-1 (QQLLGTGRVQGYDGYFVLSVEQYLELSDSANNIHFMRQSEI-NH2) [TCAP-1, mouse TCAP-1 in some experiments] | more effective in reducing plasma corticosterone levels in the mice at lower dosage levels | – | – | 47 | 47 | 42 | 32 | 16 | reduced jump rates in a dose dependent manner | significantly reduced the number of jumps | much more effective and at lower dosages in significantly lowering the number of jumps | more effective in reducing the number of jumps/20 minutes |
